Test results reported in patent US10227344B2, “CK2 inhibitors, compositions and methods thereof” (Polaris Pharmaceuticals, Inc., priority 2016, dated 2019).

How the values were obtained:
Assay type in all cases: cell-based
[1] = tested on: T47D; assay: Cancer cell panel, cell viability (resazurin): Breast, T47D; settings: 72 hours, labelled drug combined with Example 3
[2] = tested on: MDA-MB-231; assay: Cancer cell panel, cell viability (resazurin): Breast, MDA-MB-231; settings: MDA-MB-231 (Breast), 72 hours; labelled drug combined with Example 3
Method: (§1) Cells were plated in 96-well plates and treated for 72 hours with a serially diluted CK2 inhibitor or anti-cancer drug or their combination. The suspension cell lines were treated right after plating, while the adherent cells were allowed to attach overnight prior to the start of the treatment.
(§2) Cell viability was determined by adding resazurin to cell cultures and measuring fluorescence with a plate reader. Relative cell viability was calculated by dividing the cell viability signal from a test sample by that of a non-treated control. […] Bliss Independence and Highest Single Agent models were used to determine if there is synergy, additivity or antagonism between the CK2 inhibitor and an anti-cancer drug.

[3] = tested on: Mia-Paca-2; assay: Cancer cell panel, cell viability (resazurin): Pancreatic, Mia-Paca-2; settings: Mia-Paca-2 (Pancreatic), 72 hours; labelled drug combined with Example 3
Method: as §1, §2

[4] = tested on: A2780; assay: Cancer cell panel, cell viability (resazurin): Ovarian, A2780; settings: 72 hours, labelled drug combined with Example 3
[5] = tested on: Colo205; assay: Cancer cell panel, cell viability (resazurin): Colon, Colo205; settings: 72 hours, labelled drug combined with Example 3
[6] = tested on: ZR-75-1; assay: Cancer cell panel, cell viability (resazurin): Breast, ZR-75-1; settings: ZR-75-1 (Breast), 72 hours; labelled drug combined with Example 3
[7] = tested on: RPMI8226; assay: Cancer cell panel, cell viability (resazurin): multiple myeloma, RPMI8226; settings: 72 hours, labelled drug combined with Example 3
Method: as §1, §2

[8] = tested on: ACHN; assay: Cancer cell panel, cell viability (resazurin): Renal, ACHN; settings: 72 hours, labelled drug combined with Example 3
Method: as §1, §2

[9] = tested on: Panc-1; assay: Cancer cell panel, cell viability (resazurin): Pancreatic, Panc-1; settings: Panc-1 (Pancreatic), 72 hours; labelled drug combined with Example 3
[10] = tested on: H2122; assay: Cancer cell panel, cell viability (resazurin): NSCLC, H2122; settings: 72 hours, labelled drug combined with Example 3
[11] = tested on: H1299; assay: Cancer cell panel, cell viability (resazurin): NSCLC, H1299; settings: 72 hours, labelled drug combined with Example 3
Method: as §1, §2

[12] = tested on: Caki-1; assay: Cancer cell panel, cell viability (resazurin): Renal, Caki-1; settings: Caki-1 (Renal), 72 hours; labelled drug combined with Example 3
[13] = tested on: BT-474; assay: Cancer cell panel, cell viability (resazurin): Breast, BT-474; settings: BT-474 (Breast), 72 hours; labelled drug combined with Example 3
[14] = tested on: A375; assay: Cancer cell panel, cell viability (resazurin): Melanoma, A375; settings: 72 hours, labelled drug combined with Example 3
[15] = tested on: H1975; assay: Cancer cell panel, cell viability (resazurin): NSCLC, H1975; settings: 72 hours, labelled drug combined with Example 3
[16] = tested on: SK-MEL-3; assay: Cancer cell panel, cell viability (resazurin): Melanoma, SK-MEL-3; settings: SK-MEL-3 (Melanoma), 72 hours; labelled drug combined with Example 3
[17] = tested on: Caov-3; assay: Cancer cell panel, cell viability (resazurin): Ovarian, Caov-3; settings: Caov-3 (Ovarian), 72 hours; labelled drug combined with Example 3
[18] = tested on: WM-115; assay: Cancer cell panel, cell viability (resazurin): Melanoma, WM-115; settings: WM-115 (Melanoma), 72 hours; labelled drug combined with Example 3
[19] = tested on: MDA-MB-157; assay: Cancer cell panel, cell viability (resazurin): Breast, MDA-MB-157; settings: MDA-MB-157 (Breast), 72 hours; labelled drug combined with Example 3
[20] = tested on: K562; assay: Cancer cell panel, cell viability (resazurin): Leukemia, K562; settings: 72 hours, labelled drug combined with Example 3
[21] = tested on: SK-MEL-24; assay: Cancer cell panel, cell viability (resazurin): Melanoma, SK-MEL-24; settings: SK-MEL-24 (Melanoma), 72 hours; labelled drug combined with Example 3
[22] = tested on: EOL-1; assay: Cancer cell panel, cell viability (resazurin): Leukemia, EOL-1; settings: EOL-1 (Leukemia), 72 hours; labelled drug combined with Example 3
Method: as §1, §2

[23] = tested on: Daudi; assay: Cancer cell panel, cell viability (resazurin): Burkitt's Lymphoma, Daudi; settings: 72 hours, labelled drug combined with Example 3
Method: as §1, §2

[24] = tested on: HCT116; assay: Cancer cell panel, cell viability (resazurin): Colon, HCT116; settings: 72 hours, labelled drug combined with Example 3
Method: as §1, §2

[25] = tested on: DLD-1; assay: Cancer cell panel, cell viability (resazurin): Colon, DLD-1; settings: DLD-1 (Colon), 72 hours; labelled drug combined with Example 3
[26] = tested on: SkBr-3; assay: Cancer cell panel, cell viability (resazurin): Breast, SkBr-3; settings: SkBr-3 (Breast), 72 hours; labelled drug combined with Example 3
[27] = tested on: MDA-MB-453; assay: Cancer cell panel, cell viability (resazurin): Breast, MDA-MB-453; settings: MDA-MB-453 (Breast), 72 hours; labelled drug combined with Example 3
[28] = tested on: BxPC3; assay: Cancer cell panel, cell viability (resazurin): Pancreatic, BxPC3; settings: 72 hours, labelled drug combined with Example 3
[29] = tested on: HL60; assay: Cancer cell panel, cell viability (resazurin): Leukemia, HL60; settings: 72 hours, labelled drug combined with Example 3
[30] = tested on: BT-20; assay: Cancer cell panel, cell viability (resazurin): Breast, BT-20; settings: BT-20 (Breast), 72 hours; labelled drug combined with Example 3
Method: as §1, §2

[31] = tested on: H460; assay: Cancer cell panel, cell viability (resazurin): NSCLC, H460; settings: 72 hours, labelled drug combined with Example 3
[32] = tested on: Raji; assay: Cancer cell panel, cell viability (resazurin): Burkitt's Lymphoma, Raji; settings: 72 hours, labelled drug combined with Example 3
[33] = tested on: PC3; assay: Cancer cell panel, cell viability (resazurin): Prostate, PC3; settings: 72 hours, labelled drug combined with Example 3
[34] = tested on: LoVo; assay: Cancer cell panel, cell viability (resazurin): Colon, LoVo; settings: 72 hours, labelled drug combined with Example 3
[35] = tested on: MOLT4; assay: Cancer cell panel, cell viability (resazurin): Leukemia, MOLT4; settings: 72 hours, labelled drug combined with Example 3
Method: as §1, §2

[36] = tested on: H23; assay: Cancer cell panel, cell viability (resazurin): NSCLC, H23; settings: 72 hours, labelled drug combined with Example 3
[37] = tested on: SKOV-3; assay: Cancer cell panel, cell viability (resazurin): Ovarian, SKOV-3; settings: SKOV-3 (Ovarian), 72 hours; labelled drug combined with Example 3
[38] = tested on: OVCAR-3; assay: Cancer cell panel, cell viability (resazurin): Ovarian, OVCAR-3; settings: OVCAR-3 (Ovarian), 72 hours; labelled drug combined with Example 3
Method: as §1, §2

COc1cccc2c1C(=O)c1c(O)c3c(c(O)c1C2=O)C[C@@](O)(C(=O)CO)C[C@@H]3O[C@H]1C[C@H](N)[C@H](O)[C@H](C)O1 [Doxorubicin, doxorubicin]
synergy, additivity or antagonism of the combination of Example 3 with the anti-cancer drug [1]: + (Additive relative to each agent alone (CI = 0.9-1 by Bliss Independence Model and <0.9 by Highest Single Agent Model))
synergy, additivity or antagonism of the combination of Example 3 with the anti-cancer drug [2]: + (Additive relative to each agent alone (CI = 0.9-1 by Bliss Independence Model and <0.9 by Highest Single Agent Model))
synergy, additivity or antagonism of the combination of Example 3 with the anti-cancer drug [3]: + (Additive relative to each agent alone (CI = 0.9-1 by Bliss Independence Model and <0.9 by Highest Single Agent Model))
synergy, additivity or antagonism of the combination of Example 3 with the anti-cancer drug [4]: + (Additive relative to each agent alone (CI = 0.9-1 by Bliss Independence Model and <0.9 by Highest Single Agent Model))
synergy, additivity or antagonism of the combination of Example 3 with the anti-cancer drug [5]: + + (Slight synergy relative to each agent alone (CI = 0.75-0.9 by Bliss Independence Model))
synergy, additivity or antagonism of the combination of Example 3 with the anti-cancer drug [6]: + + (Slight synergy relative to each agent alone (CI = 0.75-0.9 by Bliss Independence Model))
synergy, additivity or antagonism of the combination of Example 3 with the anti-cancer drug [7]: + + + (Synergy relative to each agent alone (CI = 0.4-0.74 by Bliss Independence Model))
synergy, additivity or antagonism of the combination of Example 3 with the anti-cancer drug [8]: + (Additive relative to each agent alone (CI = 0.9-1 by Bliss Independence Model and <0.9 by Highest Single Agent Model))
synergy, additivity or antagonism of the combination of Example 3 with the anti-cancer drug [9]: + + (Slight synergy relative to each agent alone (CI = 0.75-0.9 by Bliss Independence Model))
synergy, additivity or antagonism of the combination of Example 3 with the anti-cancer drug [10]: + + (Slight synergy relative to each agent alone (CI = 0.75-0.9 by Bliss Independence Model))
synergy, additivity or antagonism of the combination of Example 3 with the anti-cancer drug [11]: + (Additive relative to each agent alone (CI = 0.9-1 by Bliss Independence Model and <0.9 by Highest Single Agent Model))
synergy, additivity or antagonism of the combination of Example 3 with the anti-cancer drug [12]: + (Additive relative to each agent alone (CI = 0.9-1 by Bliss Independence Model and <0.9 by Highest Single Agent Model))
synergy, additivity or antagonism of the combination of Example 3 with the anti-cancer drug [13]: + + (Slight synergy relative to each agent alone (CI = 0.75-0.9 by Bliss Independence Model))
synergy, additivity or antagonism of the combination of Example 3 with the anti-cancer drug [14]: + (Additive relative to each agent alone (CI = 0.9-1 by Bliss Independence Model and <0.9 by Highest Single Agent Model))
synergy, additivity or antagonism of the combination of Example 3 with the anti-cancer drug [15]: + (Additive relative to each agent alone (CI = 0.9-1 by Bliss Independence Model and <0.9 by Highest Single Agent Model))
synergy, additivity or antagonism of the combination of Example 3 with the anti-cancer drug [16]: + + (Slight synergy relative to each agent alone (CI = 0.75-0.9 by Bliss Independence Model))
synergy, additivity or antagonism of the combination of Example 3 with the anti-cancer drug [17]: + (Additive relative to each agent alone (CI = 0.9-1 by Bliss Independence Model and <0.9 by Highest Single Agent Model))
synergy, additivity or antagonism of the combination of Example 3 with the anti-cancer drug [18]: + + + (Synergy relative to each agent alone (CI = 0.4-0.74 by Bliss Independence Model))
synergy, additivity or antagonism of the combination of Example 3 with the anti-cancer drug [19]: + + + (Synergy relative to each agent alone (CI = 0.4-0.74 by Bliss Independence Model))
synergy, additivity or antagonism of the combination of Example 3 with the anti-cancer drug [20]: + (Additive relative to each agent alone (CI = 0.9-1 by Bliss Independence Model and <0.9 by Highest Single Agent Model))
synergy, additivity or antagonism of the combination of Example 3 with the anti-cancer drug [21]: + (Additive relative to each agent alone (CI = 0.9-1 by Bliss Independence Model and <0.9 by Highest Single Agent Model))
synergy, additivity or antagonism of the combination of Example 3 with the anti-cancer drug [22]: + + (Slight synergy relative to each agent alone (CI = 0.75-0.9 by Bliss Independence Model))
synergy, additivity or antagonism of the combination of Example 3 with the anti-cancer drug [23]: + (Additive relative to each agent alone (CI = 0.9-1 by Bliss Independence Model and <0.9 by Highest Single Agent Model))
synergy, additivity or antagonism of the combination of Example 3 with the anti-cancer drug [24]: + + (Slight synergy relative to each agent alone (CI = 0.75-0.9 by Bliss Independence Model))
synergy, additivity or antagonism of the combination of Example 3 with the anti-cancer drug [25]: + + (Slight synergy relative to each agent alone (CI = 0.75-0.9 by Bliss Independence Model))
synergy, additivity or antagonism of the combination of Example 3 with the anti-cancer drug [26]: + (Additive relative to each agent alone (CI = 0.9-1 by Bliss Independence Model and <0.9 by Highest Single Agent Model))
synergy, additivity or antagonism of the combination of Example 3 with the anti-cancer drug [27]: + + + (Synergy relative to each agent alone (CI = 0.4-0.74 by Bliss Independence Model))
synergy, additivity or antagonism of the combination of Example 3 with the anti-cancer drug [28]: + + (Slight synergy relative to each agent alone (CI = 0.75-0.9 by Bliss Independence Model))
synergy, additivity or antagonism of the combination of Example 3 with the anti-cancer drug [29]: + (Additive relative to each agent alone (CI = 0.9-1 by Bliss Independence Model and <0.9 by Highest Single Agent Model))
synergy, additivity or antagonism of the combination of Example 3 with the anti-cancer drug [30]: + + (Slight synergy relative to each agent alone (CI = 0.75-0.9 by Bliss Independence Model))
synergy, additivity or antagonism of the combination of Example 3 with the anti-cancer drug [31]: + + (Slight synergy relative to each agent alone (CI = 0.75-0.9 by Bliss Independence Model))
synergy, additivity or antagonism of the combination of Example 3 with the anti-cancer drug [32]: + + (Slight synergy relative to each agent alone (CI = 0.75-0.9 by Bliss Independence Model))
synergy, additivity or antagonism of the combination of Example 3 with the anti-cancer drug [33]: + (Additive relative to each agent alone (CI = 0.9-1 by Bliss Independence Model and <0.9 by Highest Single Agent Model))
synergy, additivity or antagonism of the combination of Example 3 with the anti-cancer drug [34]: + (Additive relative to each agent alone (CI = 0.9-1 by Bliss Independence Model and <0.9 by Highest Single Agent Model))
synergy, additivity or antagonism of the combination of Example 3 with the anti-cancer drug [35]: + + + (Synergy relative to each agent alone (CI = 0.4-0.74 by Bliss Independence Model))
synergy, additivity or antagonism of the combination of Example 3 with the anti-cancer drug [36]: + + (Slight synergy relative to each agent alone (CI = 0.75-0.9 by Bliss Independence Model))
synergy, additivity or antagonism of the combination of Example 3 with the anti-cancer drug [37]: + (Additive relative to each agent alone (CI = 0.9-1 by Bliss Independence Model and <0.9 by Highest Single Agent Model))
synergy, additivity or antagonism of the combination of Example 3 with the anti-cancer drug [38]: + + (Slight synergy relative to each agent alone (CI = 0.75-0.9 by Bliss Independence Model))
